What was measured:
MEK1/2 [1] = test: Western blot of MEK1/2 degradation and ERK1/2 phosphorylation in LS513 cells; assay type: cell-based; details: LS513 (MDR1-overexpressing) vs SKCO1; escalating doses, 4 hours
Method: (§2) Samples were harvested in MIB lysis buffer (50 mM HEPES (pH 7.5), 0.5% Triton X-100, 150 mM NaCl, 1 mM EDTA, 1 mM EGTA, 10 mM sodium fluoride, 2.5 mM sodium orthovanadate, 1× protease inhibitor cocktail (Roche), and 1% each of phosphatase inhibitor cocktails 2 and 3 (Sigma)). Particulate was removed by centrifugation of lysates at 21,000 rpm for 15 minutes at 4° C. Lysates were subjected to SDS-PAGE chromatography and transferred to PVDF membranes before western blotting with primary antibodies. […] Secondary HRP-anti-rabbit and HRP-anti-mouse were obtained from ThermoFisher Scientific. SuperSignal West Pico and Femto Chemiluminescent Substrates (Thermo) were used to visualize blots.

[2] = tested on: K-ras mutant CRC cell lines (LS1034, LS513, SW948, SW1463, SKCO1, NCIH747, SW620); test: Cell viability (CellTiter-Glo) and colony formation of K-ras mutant CRC cell lines; details: escalating doses 5 days (viability); 1 μM 14 days (colony formation)
MEK1/2 [3] = test: Western blot of MEK1/2 degrader target in DLD-1 cells; assay type: cell-based; details: 1 μM, 24 hours
[4] = tested on: A1847 and SUM159 parental and degrader-resistant cells; test: CellTiter-Glo cell viability, parental vs degrader-resistant cells
MDR1 [5] = biological target: T1, MDR1 (Homo sapiens, UniProt P08183); test: Rhodamine 123 efflux assay in degrader-resistant cells; assay type: cell-based; parameters: endogenous in cells; host or cells: A1847 parental, dBET6-R, Thal-R; SUM159 parental, MZ1-R; details: 2 μM
T1 sequence (P08183 whole entry): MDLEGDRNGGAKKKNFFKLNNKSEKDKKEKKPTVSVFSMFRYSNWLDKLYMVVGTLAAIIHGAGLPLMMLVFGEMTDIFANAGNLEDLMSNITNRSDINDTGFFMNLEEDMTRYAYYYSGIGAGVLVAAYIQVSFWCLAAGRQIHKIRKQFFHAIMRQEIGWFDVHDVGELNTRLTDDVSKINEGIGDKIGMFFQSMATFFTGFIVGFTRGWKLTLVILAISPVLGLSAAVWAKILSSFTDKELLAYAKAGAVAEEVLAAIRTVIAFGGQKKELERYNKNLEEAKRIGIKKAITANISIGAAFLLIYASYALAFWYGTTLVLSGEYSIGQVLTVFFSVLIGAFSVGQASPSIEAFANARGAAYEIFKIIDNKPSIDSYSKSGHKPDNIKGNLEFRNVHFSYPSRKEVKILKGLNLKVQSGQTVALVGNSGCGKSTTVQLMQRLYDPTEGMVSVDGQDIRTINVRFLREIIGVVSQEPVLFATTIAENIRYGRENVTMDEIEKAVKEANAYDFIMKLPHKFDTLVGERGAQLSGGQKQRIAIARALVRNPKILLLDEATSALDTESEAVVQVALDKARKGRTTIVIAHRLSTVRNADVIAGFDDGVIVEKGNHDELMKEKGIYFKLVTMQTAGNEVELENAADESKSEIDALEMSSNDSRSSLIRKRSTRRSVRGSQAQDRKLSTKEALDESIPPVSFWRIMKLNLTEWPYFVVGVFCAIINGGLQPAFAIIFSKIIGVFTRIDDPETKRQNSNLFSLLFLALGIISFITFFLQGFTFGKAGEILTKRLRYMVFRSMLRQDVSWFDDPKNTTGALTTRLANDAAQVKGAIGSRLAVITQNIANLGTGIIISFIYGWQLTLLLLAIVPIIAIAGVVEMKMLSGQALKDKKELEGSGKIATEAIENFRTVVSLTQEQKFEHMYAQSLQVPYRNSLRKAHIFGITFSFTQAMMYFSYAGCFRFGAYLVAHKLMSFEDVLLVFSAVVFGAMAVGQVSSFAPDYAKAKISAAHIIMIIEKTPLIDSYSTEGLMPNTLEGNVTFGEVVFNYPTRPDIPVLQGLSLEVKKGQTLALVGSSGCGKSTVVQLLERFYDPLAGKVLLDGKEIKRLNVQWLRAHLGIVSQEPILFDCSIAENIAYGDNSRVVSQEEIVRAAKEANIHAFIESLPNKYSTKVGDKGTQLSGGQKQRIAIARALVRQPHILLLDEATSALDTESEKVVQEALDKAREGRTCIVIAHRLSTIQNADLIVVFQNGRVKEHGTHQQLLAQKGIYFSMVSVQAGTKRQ
Method: (§1) Efflux assay was performed according to manufacturer's protocol (Millipore Sigma #ECM910). Cells were resuspended in cold efflux buffer and incubated with Rhodamine 123 for 1 hour on ice. Cells were centrifuged and treated in warm efflux buffer with DMSO or drug for 30-60 minutes, washed with cold PBS, and effluxed dye was quantified with a plate reader at an excitation wavelength of 485 nm and an emission wavelength of 530 nm.

[6] = tested on: OVCAR3, HCT116, and MOLT4 cells; test: CellTiter-Glo cell viability, parental vs MZ1 chronically exposed cells; details: 5 days
[7] = tested on: BET proteins (BRD2, BRD3 or BRD4); test: Western blot of BET protein degradation, parental vs degrader-resistant cells; assay type: cell-based; details: for degradation of BET proteins by escalating doses: 0-10 μM, 24 hours
Method: as §2

A1847 or SUM159 cells = test: Colony formation assay (14 days, crystal violet); details: SUM159 cells expressing Flag-MDR1, MZ1 0.1 μM, with or without tariquidar 0.1 μM
MDR1 (ABCB1) = test: Single-run proteomics (LC-MS/MS, label-free quantitation) of degrader-resistant cells; assay type: cell-based, human
Method: To determine changes in cells chronically exposed to BET or CDK9 PROTACs, we performed single-run proteome analysis as previously described (Lai et al., Front. Oncol., 2020, 10, 2336). Briefly, WT or PROTAC-R cells were lysed in 50 mM HEPES pH 8.0+4% SDS, and 100 μg of proteins were digested using LysC and trypsin. Digested peptides were isolated using C-18 and PGC columns, then dried and cleaned with ethyl acetate. Three […] peptides were analyzed using LC-MS/MS. MaxQuant normalized LFQ values were imported into Perseus software (1.6.2.3) and filtered in the following manner: kinases identified by site only were removed, reverse, or potential contaminant were removed then filtered for kinases identified by >1 unique peptide. Protein LFQ values were log 2 transformed, filtered for a minimum valid number of 3, normalized using Z-scores, annotated, and subjected to a Student's t-test with comparing […]. […]
Proteolytic peptides were resuspended in 0.1% formic acid and separated with a Thermo Scientific RSLC nano Ultimate 3000 LC on a Thermo Scientific Easy-Spray C18 PepMap 75 μm×50 cm C-18 2 μm column. […] Eluted peptides were analyzed by Thermo Scientific Q Exactive or Q Exactive plus mass spectrometers utilizing a top 15 methodology in which the 15 most intense peptide precursor ions were subjected to fragmentation. […]
Raw data analysis of LFQ experiments was performed using MaxQuant software 1.6.1.0 and searched using Andromeda 1.5.6.0 against the Swiss-Prot human protein database (downloaded on Apr. 24, 2019, 20402 entries). […] LFQ quantitation was performed using MaxQuant with the following parameters; LFQ minimum ratio count: Global parameters for protein quantitation were as follows: label minimum ratio count: 1, peptides used for quantitation: unique, only use modified proteins selected and with normalized average ratio estimation selected. Match between runs was employed for LFQ quantitation and the significance threshold of the ion score was calculated based on a false discovery rate of <1%.

[8] = tested on: HCT-15, DLD-1 and CAKI-1 cells (MDR1 overexpressing); test: CellTiter-Glo cell viability of MDR1 overexpressing vs low MDR1 cancer cell lines; details: HCT-15, DLD-1, CAKI-1 vs A1847, SUM159, MOLT4; escalating doses, 5 days
ABCB1 (MDR1) = test: ABCB1 expression and MDR1 protein by qRT-PCR and immunoblot after chronic MZ1 exposure; assay type: cell-based
Method: GeneJET RNA purification kit (Thermo Scientific) was used to isolate RNA from cells according to manufacturer's instructions. qRT-PCR on diluted cDNA was performed with inventoried TaqMan® Gene Expression Assays on the Applied Biosystems 7500 Fast Real-Time PCR System. The TaqMan Gene Expression Assay probes (ThermoFisher Scientific) used to assess changes in gene expression include ABCB1 (Assay ID: Hsxxxx), and ACTB (control) (Assay ID: Hsxxxx).

MDR1 [9] = biological target: T1, MDR1; test: Rhodamine 123 efflux assay in DLD-1 cells; assay type: cell-based; parameters: endogenous in cells; details: 2 μM
Method: as §1

CDK9 [10] = biological target: T2, CDK9 (Homo sapiens, UniProt P50750); test: Western blot of CDK9 degradation, A1847 parental vs Thal-R cells; assay type: cell-based; details: A1847 Thal-R vs parental; 2 μM, 4 hours
T2 sequence (P50750 whole entry): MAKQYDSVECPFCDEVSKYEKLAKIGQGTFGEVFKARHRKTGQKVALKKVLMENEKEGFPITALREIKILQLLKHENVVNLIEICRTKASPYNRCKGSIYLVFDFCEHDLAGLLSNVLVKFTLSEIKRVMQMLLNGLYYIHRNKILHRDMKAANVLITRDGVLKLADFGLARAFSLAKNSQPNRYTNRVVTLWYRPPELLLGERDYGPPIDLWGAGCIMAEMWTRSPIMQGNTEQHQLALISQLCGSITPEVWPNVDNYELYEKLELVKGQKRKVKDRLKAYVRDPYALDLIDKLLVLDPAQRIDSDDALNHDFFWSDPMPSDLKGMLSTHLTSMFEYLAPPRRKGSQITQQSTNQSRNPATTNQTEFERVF
T2 sequence (O60563 whole entry partner): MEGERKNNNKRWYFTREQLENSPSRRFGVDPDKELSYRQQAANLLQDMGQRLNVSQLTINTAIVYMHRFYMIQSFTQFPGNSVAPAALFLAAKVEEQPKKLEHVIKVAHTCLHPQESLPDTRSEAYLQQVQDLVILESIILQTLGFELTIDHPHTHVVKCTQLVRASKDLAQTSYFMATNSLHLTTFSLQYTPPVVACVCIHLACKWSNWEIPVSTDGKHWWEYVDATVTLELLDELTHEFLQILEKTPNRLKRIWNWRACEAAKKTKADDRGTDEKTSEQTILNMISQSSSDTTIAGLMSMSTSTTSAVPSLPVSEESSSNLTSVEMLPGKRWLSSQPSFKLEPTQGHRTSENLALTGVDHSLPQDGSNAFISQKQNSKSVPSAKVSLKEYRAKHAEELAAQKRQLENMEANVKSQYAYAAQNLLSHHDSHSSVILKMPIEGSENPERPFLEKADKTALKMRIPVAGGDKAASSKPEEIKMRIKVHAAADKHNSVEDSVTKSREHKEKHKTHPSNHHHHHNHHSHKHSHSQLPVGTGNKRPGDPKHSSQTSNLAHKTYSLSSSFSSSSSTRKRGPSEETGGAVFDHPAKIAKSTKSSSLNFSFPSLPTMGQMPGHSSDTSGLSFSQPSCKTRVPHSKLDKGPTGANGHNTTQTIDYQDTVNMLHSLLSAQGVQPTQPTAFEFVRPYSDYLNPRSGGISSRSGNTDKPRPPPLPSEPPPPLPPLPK
Method: as §2

[11] = tested on: A1847 dBET6-R or Thal-R cells; test: Apoptosis by western blot in degrader-resistant A1847 cells; assay type: cell-based; details: 2 μM, 4 hours
Method: as §2

DLD-1 cells = test: Colony formation assay (14 days) in DLD-1 cells; details: for colony formation on co-treatment with dBET6: dBET6 0.1 μM plus the compound at 2 μM, 14-day period
BRD4 (BET proteins) = biological target: T3, BRD4 (BET proteins) (Homo sapiens, UniProt O60885); test: Western blot of BET protein/BRD4 degradation in DLD-1 cells; assay type: cell-based; details: 4 hours; for dBET6-mediated degradation of BRD4 on combined treatment: increasing doses of dBET6 plus the compound at 2 μM
T3 construct: endogenous in cells; host or cells: DLD-1
Method: as §2

CDK9 [12] = biological target: T2, CDK9; test: Western blot of CDK9 degradation in DLD-1 cells; assay type: cell-based; parameters: endogenous in cells; host or cells: DLD-1; details: DLD-1; increasing doses of Thal SNS 032 plus the compound at 2 μM, 4 hours
Method: as §2

[13] = A1847 parental vs chronically exposed cells, escalating doses, 5 days

For Cc1ncsc1-c1ccc([C@H](C)NC(=O)[C@@H]2C[C@@H](O)CN2C(=O)[C@@H](NC(=O)CCCCCCCCCCNCCCONC(=O)c2ccc(F)c(F)c2Nc2ccc(I)cc2F)C(C)(C)C)cc1 [MS432], the “MEK1 or MEK2 protein levels, ERK1/2 phosphorylation, apoptosis” value (MEK1/2 [1]) was “did not reduce MEKI or MEK2 protein levels, inhibit ERK1/2 phosphorylation or induce apoptosis”, the “resistance of MDR1 overexpressing vs MDR1 low expressing CRC cell lines” value [2] was “more resistant” and the “protein reduction on co-treatment with tariquidar” value (MEK1/2 [3]) was “improved the protein reduction relative to single agent therapies”.
In the case of Cc1sc2c(c1C)C(c1ccc(Cl)cc1)=N[C@@H](CC(=O)OC(C)(C)C)c1nnc(C)n1-2 [JQ1], the “sensitization to tariquidar after chronic exposure” value ([4]; A1847 JQ1-R vs parental and dBET6-R cells) is reported as “did not cause sensitization to tariquidar”.
For CN(C)C/C=C/C(=O)Nc1cc2c(Nc3ccc(F)c(Cl)c3)ncnc2cc1O[C@H]1CCOC1 [afatinib], the “MDR1 drug efflux activity (Rhodamine 123 efflux)” value (“MDR1 drug efflux activity” for short) (MDR1 [5]; A1847 Thal-R cells) was “does not reduce MDR1 drug efflux activity”.
In the case of Cc1ncsc1-c1ccc(CNC(=O)[C@@H]2C[C@@H](O)CN2C(=O)[C@@H](NC(=O)COCCOCCOCCNC(=O)C[C@@H]2N=C(c3ccc(Cl)cc3)c3c(sc(C)c3C)-n3c(C)nnc32)C(C)(C)C)cc1 [MZ1], the “sensitivity after chronic exposure (cell viability)” value ([6]; MOLT4 parental or MZ1-R cells) is reported as “retain sensitivity”, the “acquired resistance (cell viability)” value ([6]; OVCAR3 and HCT116, chronic exposure) is reported as “acquired resistance” and the “degradation of BET proteins by escalating doses” value ([7]; A1847 parental vs chronically exposed cells) is reported as “less effective at inducing degradation of BET proteins”. For the same molecule, the “degradation of BET proteins by escalating doses” value ([7]; SUM159 parental vs MZ1-R cells) was “less effective at inducing degradation of BET proteins”, the “colony formation with forced expression of Flag-MDR1” value (A1847 or SUM159 cells) was “rescued colony formation growth” and the “acquired resistance (cell viability dose-response)” value [4, 13] was “acquire resistance”. The “acquired resistance (cell viability dose-response)” value ([4]; SUM159 parental vs chronically exposed (MZ1-R) cells, 5 days) was “resulted in degrader-resistance”, the “MDR1 protein levels upregulated relative to parental cell lines by LFQ analysis” value (MDR1 (ABCB1); A1847 cells chronically exposed to the degrader (degrader-R) vs parental) was 5-5 fold and the “MDR1 protein increase compared to parental cells (proteomics)” value (MDR1 (ABCB1); SUM159 MZ1-R cells vs parental) was ~4.5 fold. The “cell viability of MDR1 overexpressing cells” value [8] was “did not reduce cell viability to the extent of cancer cell lines expressing low or no detectable MDR1 protein”, the “ABCB1 expression after chronic exposure” value (ABCB1 (MDR1); MOLT4 cells) was “do not induce ABCB1 expression” and the “MDR1 mRNA and protein levels after chronic exposure” value (ABCB1 (MDR1); OVCAR3 and HCT116 MZ1-R cells) was “elevated MDR1 mRNA and protein levels”.
For CC(=O)O[C@H]1C(=O)[C@@]2(C)[C@H]([C@H](OC(=O)c3ccccc3)[C@]3(O)C[C@H](OC(=O)[C@H](O)[C@@H](NC(=O)c4ccccc4)c4ccccc4)C(C)=C1C3(C)C)[C@]1(OC(C)=O)CO[C@@H]1C[C@@H]2O [paclitaxel], the “resistance to MDR1 substrate (cell viability)” value ([4]; BET protein or CDK9 degrader-resistant A1847 cells vs parental, 5 days) was “acquired resistance”.
For CO[C@H]1C[C@@H]2CC[C@@H](C)[C@@](O)(O2)C(=O)C(=O)N2CCCC[C@H]2C(=O)O[C@H]([C@H](C)C[C@@H]2CC[C@@H](OCCO)[C@H](OC)C2)CC(=O)[C@H](C)/C=C(\C)[C@@H](O)[C@@H](OC)C(=O)[C@H](C)C[C@H](C)/C=C/C=C/C=C/1C [RAD001, Everolimus], the “MDR1 drug efflux activity” value (MDR1 [9]) was “reduced MDR1 drug efflux activity similar to tariquidar-treatment”, the “degradation of CDK9 in degrader-resistant cell lines” value (CDK9 [10]) was “resulted in degradation of BET proteins (FIG. 5, Panel G; FIG. 12, Panels E and F) or CDK9” and the “apoptosis in degrader-resistant cell lines” value [11] was “resulted in apoptosis similar to tariquidar treatment”. For the same molecule, the “degradation of BET proteins in degrader-resistant cell lines” value ([7]; A1847 dBET6-R or MZ1-R vs parental, 2 μM, 4 hours) was “resulted in degradation of BET proteins”, the “growth inhibition of colonies on combination with Thal SNS 032” value (DLD-1 cells; compound at 2 μM, 14 days) was “enhancing growth inhibition of colonies” and the “colony formation on co-treatment with dBET6” value (DLD-1 cells) was “exhibits drug synergy”. For the same molecule, the “MDR1 drug efflux activity” value (MDR1 [5]; A1847 dBET6-R or Thal-R cell lines) was “reduced MDR1 drug efflux activity similar to that observed with tariquidar”, the “reduction in concentrations of dBET6 required to degrade BRD4 when combined” value (BRD4 (BET proteins); combined with the compound at 2 μM) was 100 fold and the “dBET6-mediated degradation of BRD4 on combined treatment” value (BRD4 (BET proteins)) was “improved dBET6-mediated degradation of BRD4”. The “sensitivity of degrader-resistant cells vs parental cells (cell viability)” value ([4]; increasing concentrations, A1847 dBET6-R, Thal-R, MZ1-R and SUM159 MZ1-R) was “more sensitive” and the “degradation of CDK9 by Thal SNS 032 on combined treatment” value (CDK9 [12]) was “improving degradation of CDK9”.
Cc1sc2c(c1C)C(c1ccc(Cl)cc1)=N[C@@H](CC(=O)NCCCCCCCCNC(=O)COc1cccc3c1C(=O)N(C1CCC(=O)NC1=O)C3=O)c1nnc(C)n1-2 (some centres unmarked) [dBET6] was tested, and the “acquired resistance (cell viability dose-response)” value [4, 13] was “acquire resistance” and the “cell viability of MDR1 overexpressing cells” value [8] was “did not reduce cell viability to the extent of cancer cell lines expressing low or no detectable MDR1 protein”.
In the case of COc1ccc(-c2ccc3c(N4CCOCC4)nc(N4C[C@@H](C)O[C@@H](C)C4)nc3n2)cc1CO [KU-0063794], the “colony formation, single agent” value (DLD-1 cells; 2 μM, 14 days) is reported as “completely repressed colony formation”, the “colony formation on co-treatment with dBET6” value (DLD-1 cells) is reported as “did not improve growth inhibition” and the “MDR1 drug efflux activity” value (MDR1 [5]; A1847 Thal-R cells) is reported as “does not reduce MDR1 drug efflux activity”. For the same molecule, the “dBET6-mediated degradation of BRD4 on combined treatment” value (BRD4 (BET proteins)) was “failed to improve degradation of BRD4”.
